Patent US11040028B2, “Penicinotam derivative, preparation method and use thereof” (OCEAN UNIVERSITY OF CHINA, priority 2017, dated 2021)

Key:
Format in all cases: cell-based
[1] = system: human hepatic stellate cells LX-2; test: Anti-fibrosis activity test: inhibition of proliferation of human hepatic stellate cells LX-2 (CCK-8); settings: Homo sapiens, 48 h
Summary of the method: (§1)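 Proliferation read by CCK-8 (2 h, A450) after 48 h compound treatment of cells plated at 2×10^4 cells/mL and allowed 24 h attachment, triplicate per concentration. Inhibition rate derived from absorbance relative to untreated blank, with IC50 fitted; pirfenidone as positive control.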

[2] = system: cardiac fibroblast RAT-iCell-C002; test: Anti-fibrosis activity test: inhibition of proliferation of cardiac fibroblast RAT-iCell-C002 (CCK-8); settings: Cardiac fibroblast, 48 h
Summary of the method: as §1

[3] = system: mouse macrophages (RAW264.7); test: Lipopolysaccharide-induced NO secretion in macrophages (Griess); settings: Mus musculus, RAW264.7, 24 h, RAW264.7, LPS 1 μg/ml, a/b isomers given as first/second symbol, read-out: IC50 (μM), inhibition of lipopolysaccharide-induced NO secretion in macrophages
Summary of the method: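 Percent inhibition of NO release was measured by Griess absorbance at 548 nm in supernatants. Cells were mouse RAW264.7 macrophages in 10% FBS DMEM, treated with graded compound concentrations and activated by LPS (1 μg/ml) for 24 h.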

[4] = system: human dermal fibroblasts CCC-ESF-1; test: Anti-fibrosis activity test: inhibition of proliferation of human dermal fibroblasts CCC-ESF-1 (CCK-8); settings: Fibroblast
Summary of the method: as §1

[5] = system: NF-κB; test: Immunological activity test: inhibition of NF-κB activity; settings: initial concentration of 30 μM; a/b isomers given as first/second symbol; read-out: IC50 (μM), inhibitory activity against NF-κB
Summary of the method: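 Each compound is tested at 30 μM for its ability to suppress NF-κB signalling. Parthenolide runs alongside as the positive control, and the data are then analysed to give IC50 values.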

[6] = system: BHK-21 cells; test: Anti-fibrosis activity test: inhibition of BHK-21 cell proliferation (CCK-8); settings: Mesocricetus auratus, BHK-21, 48 h
Summary of the method: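 Read-out: CCK-8 absorbance at 450 nm after 2 h, giving proliferation inhibition (1−Ai/Ao)×100% versus blank control, from which IC50 was derived. Cells had been treated with compounds for 48 h after 24 h adherence at 37° C. Pirfenidone served as positive control.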

[7] = system: human lung fibroblasts HFL1; test: Anti-fibrosis activity test: inhibition of proliferation of human lung fibroblasts HFL1 (CCK-8); settings: Homo sapiens, HFL1, 48 h
Summary of the method: as §1

[8] = system: human embryonic lung fibroblast IMR-90; test: Anti-fibrosis activity test: inhibition of proliferation of human embryonic lung fibroblast IMR-90 (CCK-8)
Summary of the method: as §1

[9] = system: human fibrosarcoma cells HT-1080; test: Anti-fibrosis activity test: inhibition of proliferation of human fibrosarcoma cells HT-1080 (CCK-8); settings: Homo sapiens, HT-1080, 48 h
Summary of the method: as §1

[10] = human hepatic stellate cells LX-2, CCK-8, 48 hours
[11] = cardiac fibroblast RAT-iCell-C002, CCK-8, 48 hours
[12] = human dermal fibroblasts CCC-ESF-1, CCK-8, 48 hours
[13] = CCK-8, 48 hours after administration
[14] = human lung fibroblasts HFL1, CCK-8, 48 hours
[15] = human embryonic lung fibroblast IMR-90, CCK-8, 48 hours
[16] = human fibrosarcoma cells HT-1080, CCK-8, 48 hours
[17] = Homo sapiens, CCC-ESF-1 cells, 48 h, CCK-8
[18] = Homo sapiens, IMR-90 cells, 48 h, CCK-8

Structure (SMILES)	IC50 [1, 10]	IC50 [2, 11]	IC50 [3]	IC50 [4, 12]	IC50 [5]	IC50 [6, 13]	IC50 [7, 14]	IC50 [8, 15]	IC50 [9, 16]	IC50 ([1]; LX-2, 48 h, LX-2 cells, CCK-8)	IC50 ([2]; RAT-iCell-C002 cells, CCK-8)	IC50 [4, 17]	IC50 ([6]; 48 h, CCK-8)	IC50 ([7]; HFL1 cells, 48 h, CCK-8)	IC50 [8, 18]	IC50 ([9]; HT-1080 cells, 48 h, CCK-8)
O=C1c2c(nc3ccccc3c2OCc2ccc(Br)cc2)-c2cccn21 [Compound 594b, 9-((4-bromobenzyl)oxy)-10H-pyrrolizino[1,2-b]quinolin-10-one]	0.05 to 5 mM	0.05 to 5 mM	1 to 10 µM	0.05 to 5 mM	1 to 10 µM	0.05 to 5 mM	0.05 to 5 mM	0.05 to 5 mM	0.05 to 5 mM							
Cc1cc2nc3c(c(O)c2cc1C)C(=O)n1cccc1-3 [Compound 756b, 9-hydroxy-6,7-dimethyl-10H-pyrrolizino[1,2-b]quinolin-10-one]			10 to 50 µM		1 to 10 µM					0.05 to 5 mM	0.05 to 5 mM	0.05 to 5 mM	0.05 to 5 mM	0.05 to 5 mM	0.05 to 5 mM	0.05 to 5 mM
O=C(Oc1c2c(nc3ccccc13)-c1cccn1C2=O)c1ccco1 [Compound 95b, 10-oxo-10H-pyrrolizino[1,2-b]quinolin-9-ylfuran-2-carboxylate]	< 0.05 mM	0.05 to 5 mM	1 to 10 µM	0.05 to 5 mM	1 to 10 µM	0.05 to 5 mM	0.05 to 5 mM	0.05 to 5 mM	0.05 to 5 mM							
O=C1c2c([nH]c3c(O)cccc3c2=O)-c2cccn21 [Compound 445a, 5-Hydroxy-9H-pyrrolizino[1,2-b]quinoline-9,10(4H)-dione]	0.05 to 5 mM	0.05 to 5 mM	1 to 10 µM	0.05 to 5 mM	1 to 10 µM	0.05 to 5 mM	0.05 to 5 mM	0.05 to 5 mM	0.05 to 5 mM							
CC(C)(C)c1ccc(Cn2c3c(c(=O)c4ccccc42)C(=O)n2cccc2-3)cc1 [Compound 605a, 4-(4-(Tert-butyl)benzyl)-9H-pyrrolizino[1,2-b]quinoline-9,10(4H)-dione]	0.05 to 5 mM	0.05 to 5 mM	1 to 10 µM	0.05 to 5 mM	1 to 10 µM	0.05 to 5 mM	0.05 to 5 mM	0.05 to 5 mM	0.05 to 5 mM							
O=C1c2c(nc3ccccc3c2OCc2ccc(Cl)cc2)-c2cccn21 [Compound 589b, 9-((4-chlorobenzyl)oxy)-10H-pyrrolizino[1,2-b]quinolin-10-one]	< 0.05 mM	0.05 to 5 mM	1 to 10 µM	0.05 to 5 mM	1 to 10 µM	0.05 to 5 mM	0.05 to 5 mM	0.05 to 5 mM	< 0.05 mM							
CS(=O)(=O)Oc1c2c(nc3ccccc13)-c1cccn1C2=O [Compound 650b, 10-oxo-10H-pyrrolizino[1,2-b]quinolin-9-yl methanesulfonate]	0.05 to 5 mM	0.05 to 5 mM	1 to 10 µM	0.05 to 5 mM	1 to 10 µM	0.05 to 5 mM	0.05 to 5 mM	0.05 to 5 mM	0.05 to 5 mM							
COc1c2c(nc3ccc(F)cc13)-c1cccn1C2=O [Compound 157b, 7-fluoro-9-methoxy-10H-pyrrolizino[1,2-b]quinolin-10-one]	0.05 to 5 mM	0.05 to 5 mM	1 to 10 µM	0.05 to 5 mM	0.1 to 1 µM	0.05 to 5 mM	0.05 to 5 mM	0.05 to 5 mM	0.05 to 5 mM							
O=C1c2c(nc3ccccc3c2OCc2ccc(F)cc2F)-c2cccn21 [Compound 578b, 9-((2,4-difluorobenzyl)oxy)-10H-pyrrolizino[1,2-b]quinolin-10-one]	0.05 to 5 mM	0.05 to 5 mM	1 to 10 µM	0.05 to 5 mM	1 to 10 µM	0.05 to 5 mM	0.05 to 5 mM	0.05 to 5 mM	0.05 to 5 mM							
O=C(COc1c2c(nc3ccccc13)-c1cccn1C2=O)c1ccc(C(F)(F)F)cc1 [Compound 91b, 9-(2-oxo-2-(4-(trifluoromethyl)phenyl)ethoxy)-10H-pyrrolizino[1,2-b]quinolin-10-one]	5 to 20 mM	0.05 to 5 mM	0.1 to 1 µM	0.05 to 5 mM	1 to 10 µM	0.05 to 5 mM	< 0.05 mM	0.05 to 5 mM	0.05 to 5 mM							
O=C1c2c(n(C3CC3)c3ccccc3c2=O)-c2cccn21 [Compound 673a, 4-Cyclopropyl-9H-pyrrolizino[1,2-b]quinoline-9,10(4H)-dione]			1 to 10 µM		1 to 10 µM					0.05 to 5 mM	0.05 to 5 mM	0.05 to 5 mM	< 0.05 mM	0.05 to 5 mM	0.05 to 5 mM	0.05 to 5 mM
O=C1c2c(nc3ccccc3c2OCc2cc(C(F)(F)F)ccc2Cl)-c2cccn21 [Compound 611b, 9-((2-chloro-5-(trifluoromethyl)benzyl)oxy)-10H-pyrrolizino[1,2-b]quinolin-10-one]	0.05 to 5 mM	0.05 to 5 mM	10 to 50 µM	0.05 to 5 mM	1 to 10 µM	0.05 to 5 mM	0.05 to 5 mM	0.05 to 5 mM	0.05 to 5 mM							
Cc1cccc2c(=O)c3c([nH]c12)-c1cccn1C3=O [Compound 732a, 5-Methyl-9H-pyrrolizino[1,2-b]quinoline-9,10(4H)-dione]			1 to 10 µM		0.1 to 1 µM					0.05 to 5 mM	0.05 to 5 mM	< 0.05 mM	< 0.05 mM	0.05 to 5 mM	0.05 to 5 mM	0.05 to 5 mM
O=C1c2c(nc3cccc(C(F)(F)F)c3c2O)-c2cccn21 [Compound 479b, 9-hydroxy-8-(trifluoromethyl)-10H-pyrrolizino[1,2-b]quinolin-10-one]	0.05 to 5 mM	0.05 to 5 mM	1 to 10 µM	0.05 to 5 mM	1 to 10 µM	0.05 to 5 mM	0.05 to 5 mM	0.05 to 5 mM	0.05 to 5 mM							
O=C1c2c(n(CCCCN3CCCCC3)c3ccccc3c2=O)-c2cccn21 [Compound 667a, 4-(4-(Piperidin-1-yl)butyl)-9H-pyrrolizino[1,2-b]quinoline-9,10(4H)-dione]			1 to 10 µM		1 to 10 µM					0.05 to 5 mM	0.05 to 5 mM	0.05 to 5 mM	0.05 to 5 mM	0.05 to 5 mM	0.05 to 5 mM	0.05 to 5 mM
O=C1c2c(nc3ccc(C(F)(F)F)cc3c2O)-c2cccn21 [Compound 282b, 9-hydroxy-7-(trifluoromethyl)-10H-pyrrolizino[1,2-b]quinolin-10-one]	0.05 to 5 mM	0.05 to 5 mM	10 to 50 µM	0.05 to 5 mM	1 to 10 µM	0.05 to 5 mM	0.05 to 5 mM	0.05 to 5 mM	0.05 to 5 mM							
O=C1c2c(n(Cc3cccc(Cl)c3)c3ccccc3c2=O)-c2cccn21 [Compound 596a, 4-(3-Chlorobenzyl)-9H-pyrrolizino[1,2-b]quinoline-9,10(4H)-dione]	0.05 to 5 mM	0.05 to 5 mM	1 to 10 µM	0.05 to 5 mM	1 to 10 µM	0.05 to 5 mM	0.05 to 5 mM	0.05 to 5 mM	0.05 to 5 mM							
O=C1c2c([nH]c3ccc(Br)cc3c2=O)-c2cccn21 [Compound 246a, 7-Bromo-9H-pyrrolizino[1,2-b]quinoline-9,10(4H)-dione]	0.05 to 5 mM	0.05 to 5 mM	1 to 10 µM	0.05 to 5 mM	1 to 10 µM	5 to 20 mM	0.05 to 5 mM	0.05 to 5 mM	0.05 to 5 mM							
O=C1c2c(n(Cc3ccc(F)cc3Cl)c3ccccc3c2=O)-c2cccn21 [Compound 572a, 4-(2-Chloro-4-fluorobenzyl)-9H-pyrrolizino[1,2-b]quinoline-9,10(4H)-dione]	0.05 to 5 mM	0.05 to 5 mM	0.1 to 1 µM	0.05 to 5 mM	0.001 to 0.1 µM	0.05 to 5 mM	0.05 to 5 mM	0.05 to 5 mM	0.05 to 5 mM							
